Measurements from ChEMBL document CHEMBL4138123, “Design, synthesis and biological evaluation of novel pyrazolochalcones as potential modulators of PI3K/Akt/mTOR pathway and inducers of apoptosis in breast cancer cells” (Eur J Med Chem, 2017).

Key:
A549 = experiment: Cytotoxicity against human A549/ATCC cells assessed as growth inhibition after 48 hrs by sulforhodamine B assay; type: functional; conditions: A549, 48 h
NCI-H522 = experiment: Cytotoxicity against human NCI-H522 cells assessed as growth inhibition after 48 hrs by sulforhodamine B assay; type: functional; conditions: NCI-H522, 48 h
COLO 205 [1] = experiment: Cytotoxicity against human COLO205 cells assessed as growth inhibition after 48 hrs by sulforhodamine B assay; type: functional; conditions: COLO 205, 48 h
UACC-257 = experiment: Cytotoxicity against human UACC257 cells assessed as growth inhibition after 48 hrs by sulforhodamine B assay; type: functional; conditions: UACC-257, 48 h
SK-OV-3 [2] = experiment: Cytotoxicity against human SKOV3 cells assessed as growth inhibition after 48 hrs by sulforhodamine B assay; type: functional; conditions: SK-OV-3, 48 h
MCF7 [3] = experiment: Cytotoxicity against human MCF7 cells assessed as growth inhibition after 48 hrs by MTT assay; type: functional, cell-based; conditions: MCF7, 48 h
Malme-3M [4] = experiment: Cytotoxicity against human MALME-3M cells assessed as cell growth at 0.01 uM after 48 hrs by sulforhodamine B assay relative to control; type: functional; conditions: read-out: Activity
U-251 = experiment: Cytotoxicity against human U251 cells assessed as cell growth at 0.01 uM after 48 hrs by sulforhodamine B assay relative to control; type: functional; conditions: U-251, 48 h, read-out: Activity
SNB-75 = experiment: Cytotoxicity against human SNB75 cells assessed as cell growth at 0.01 uM after 48 hrs by sulforhodamine B assay relative to control; type: functional; conditions: SNB-75, 48 h, read-out: Activity
KM12 [5] = experiment: Cytotoxicity against human KM12 cells assessed as cell growth at 0.01 uM after 48 hrs by sulforhodamine B assay relative to control; type: functional; conditions: KM12, 48 h, read-out: Activity
HCT-116 [6] = experiment: Cytotoxicity against human HCT116 cells assessed as cell growth at 0.1 uM after 48 hrs by sulforhodamine B assay relative to control; type: functional; conditions: HCT-116, 48 h, read-out: Activity
RXF 393 [7] = experiment: Cytotoxicity against human RXF393 cells assessed as cell growth at 0.1 uM after 48 hrs by sulforhodamine B assay relative to control; type: functional; conditions: RXF 393, 48 h, read-out: Activity
MDA-MB-468 [8] = experiment: Cytotoxicity against human MDA-MB-468 cells assessed as cell growth at 0.1 uM after 48 hrs by sulforhodamine B assay relative to control; type: functional; conditions: MDA-MB-468, 48 h, read-out: Activity
K562 = experiment: Cytotoxicity against human K562 cells assessed as cell growth at 1 uM after 48 hrs by sulforhodamine B assay relative to control; type: functional; conditions: K562, 48 h, read-out: Activity
HCT-116 [9] = experiment: Cytotoxicity against human HCT116 cells assessed as cell growth at 1 uM after 48 hrs by sulforhodamine B assay relative to control; type: functional; conditions: HCT-116, 48 h, read-out: Activity
KM12 [10] = experiment: Cytotoxicity against human KM12 cells assessed as cell growth at 1 uM after 48 hrs by sulforhodamine B assay relative to control; type: functional; conditions: KM12, 48 h, read-out: Activity
SNB-19 [11] = experiment: Cytotoxicity against human SNB19 cells assessed as cell growth at 1 uM after 48 hrs by sulforhodamine B assay relative to control; type: functional; conditions: SNB-19, 48 h, read-out: Activity
SK-OV-3 [12] = experiment: Cytotoxicity against human SKOV3 cells assessed as cell growth at 1 uM after 48 hrs by sulforhodamine B assay relative to control; type: functional; conditions: SK-OV-3, 48 h, read-out: Activity
BT-549 = experiment: Cytotoxicity against human BT549 cells assessed as cell growth at 1 uM after 48 hrs by sulforhodamine B assay relative to control; type: functional; conditions: BT-549, 48 h, read-out: Activity
COLO 205 [13] = experiment: Cytotoxicity against human COLO205 cells assessed as cell growth at 10 uM after 48 hrs by sulforhodamine B assay relative to control; type: functional; conditions: COLO 205, 48 h, read-out: Activity
LOX IMVI = experiment: Cytotoxicity against human LOXIMVI cells assessed as cell growth at 10 uM after 48 hrs by sulforhodamine B assay relative to control; type: functional; conditions: read-out: Activity
SN12C = experiment: Cytotoxicity against human SN12C cells assessed as cell growth at 10 uM after 48 hrs by sulforhodamine B assay relative to control; type: functional; conditions: read-out: Activity
DU-145 = experiment: Cytotoxicity against human DU145 cells assessed as cell growth at 10 uM after 48 hrs by sulforhodamine B assay relative to control; type: functional; conditions: DU-145, 48 h, read-out: Activity
MCF7 [14] = experiment: Cytotoxicity against human MCF7 cells assessed as cell growth at 10 uM after 48 hrs by sulforhodamine B assay relative to control; type: functional; conditions: MCF7, 48 h, read-out: Activity
T47D = experiment: Cytotoxicity against human T47D cells assessed as cell growth at 10 uM after 48 hrs by sulforhodamine B assay relative to control; type: functional; conditions: read-out: Activity
MDA-MB-468 [15] = experiment: Cytotoxicity against human MDA-MB-468 cells assessed as cell growth at 10 uM after 48 hrs by sulforhodamine B assay relative to control; type: functional; conditions: MDA-MB-468, 48 h, read-out: Activity
RPMI-8226 = experiment: Cytotoxicity against human RPMI8226 cells assessed as cell growth at 100 uM after 48 hrs by sulforhodamine B assay relative to control; type: functional; conditions: RPMI-8226, 48 h, read-out: Activity
SR = experiment: Cytotoxicity against human SR cells assessed as cell growth at 100 uM after 48 hrs by sulforhodamine B assay relative to control; type: functional; conditions: read-out: Activity
NCI-H460 = experiment: Cytotoxicity against human NCI-H460 cells assessed as cell growth at 100 uM after 48 hrs by sulforhodamine B assay relative to control; type: functional; conditions: NCI-H460, 48 h, read-out: Activity
KM12 [16] = experiment: Cytotoxicity against human KM12 cells assessed as cell growth at 100 uM after 48 hrs by sulforhodamine B assay relative to control; type: functional; conditions: KM12, 48 h, read-out: Activity
SNB-19 [17] = experiment: Cytotoxicity against human SNB19 cells assessed as cell growth at 100 uM after 48 hrs by sulforhodamine B assay relative to control; type: functional; conditions: SNB-19, 48 h, read-out: Activity
Malme-3M [18] = experiment: Cytotoxicity against human MALME-3M cells assessed as cell growth at 100 uM after 48 hrs by sulforhodamine B assay relative to control; type: functional; conditions: read-out: Activity
RXF 393 [19] = experiment: Cytotoxicity against human RXF393 cells assessed as cell growth at 100 uM after 48 hrs by sulforhodamine B assay relative to control; type: functional; conditions: RXF 393, 48 h, read-out: Activity
NCI/ADR-RES [20] = experiment: Cytotoxicity against human NCI/ADR-RES cells assessed as cell growth at 0.1 uM after 48 hrs by sulforhodamine B assay relative to control; type: functional; conditions: read-out: Activity
MDA-MB-435 = experiment: Cytotoxicity against human MDA-MB-435 cells assessed as cell growth at 10 uM after 48 hrs by sulforhodamine B assay relative to control; type: functional; conditions: MDA-MB-435, 48 h, read-out: Activity
UO-31 = experiment: Cytotoxicity against human UO31 cells assessed as cell growth at 10 uM after 48 hrs by sulforhodamine B assay relative to control; type: functional; conditions: UO-31, 48 h, read-out: Activity
NCI/ADR-RES [21] = experiment: Cytotoxicity against human NCI/ADR-RES cells assessed as cell growth at 100 uM after 48 hrs by sulforhodamine B assay relative to control; type: functional; conditions: read-out: Activity

COc1ccc(C(=O)/C=C/c2cc(-c3ccc4c(c3)OCO4)n[nH]2)cc1OC
LC50 (concentration giving 50% net cell kill) (A549): > 100 µM | TGI (A549): 15.8 µM | LC50 (NCI-H522): 12.7 µM | TGI (NCI-H522): 4.44 µM | LC50 (COLO 205 [1]): 45.9 µM | TGI (COLO 205 [1]): 14 µM | LC50 (UACC-257): 56.4 µM | TGI (UACC-257): 22.1 µM | LC50 (SK-OV-3 [2]): > 100 µM | TGI (SK-OV-3 [2]): 26.4 µM | IC50 (MCF7 [3]): 2.5 µM | growth at 0.01 µM (Malme-3M [4]): 93% | growth at 0.01 µM (U-251): 90% | growth at 0.01 µM (SNB-75): 78% | growth at 0.01 µM (KM12 [5]): 99% | growth at 0.1 µM (HCT-116 [6]): 95% | growth at 0.1 µM (RXF 393 [7]): 97% | growth at 0.1 µM (MDA-MB-468 [8]): 90% | growth at 1 µM (K562): 80% | growth at 1 µM (HCT-116 [9]): 87% | growth at 1 µM (KM12 [10]): 94% | growth at 1 µM (SNB-19 [11]): 79% | growth at 1 µM (SK-OV-3 [12]): 99% | growth at 1 µM (BT-549): 95% | growth at 10 µM (COLO 205 [13]): 14% | growth at 10 µM (LOX IMVI): -62% | growth at 10 µM (SN12C): 11% | growth at 10 µM (DU-145): -51% | growth at 10 µM (MCF7 [14]): 14% | growth at 10 µM (T47D): 22% | growth at 10 µM (MDA-MB-468 [15]): -45% | growth at 100 µM (RPMI-8226): -45% | growth at 100 µM (SR): -35% | growth at 100 µM (NCI-H460): -81% | growth at 100 µM (KM12 [16]): -90% | growth at 100 µM (SNB-19 [17]): -95% | growth at 100 µM (Malme-3M [18]): -74% | growth at 100 µM (RXF 393 [19]): -95%

COc1ccc(-c2cc(/C=C/C(=O)c3ccc(N)cc3)[nH]n2)cc1OC
GI50 (A549): 2.75 µM | LC50 (concentration giving 50% net cell kill) (A549): 45.2 µM | TGI (A549): 10.1 µM | GI50 (NCI-H522): 1.65 µM | LC50 (NCI-H522): 6.3 µM | TGI (NCI-H522): 3.22 µM | GI50 (COLO 205 [1]): 1.88 µM | LC50 (COLO 205 [1]): 6.87 µM | TGI (COLO 205 [1]): 3.59 µM | GI50 (UACC-257): 6.46 µM | LC50 (UACC-257): 45.7 µM | TGI (UACC-257): 19.5 µM | GI50 (SK-OV-3 [2]): 4.86 µM | LC50 (SK-OV-3 [2]): 41.3 µM | TGI (SK-OV-3 [2]): 16.8 µM | IC50 (MCF7 [3]): 1.9 µM | growth at 0.01 µM (Malme-3M [4]): 104% | growth at 0.01 µM (U-251): 95% | growth at 0.01 µM (SNB-75): 81% | growth at 0.01 µM (KM12 [5]): 102% | growth at 0.1 µM (HCT-116 [6]): 101% | growth at 0.1 µM (NCI/ADR-RES [20]): 104% | growth at 0.1 µM (RXF 393 [7]): 92% | growth at 0.1 µM (MDA-MB-468 [8]): 91% | growth at 1 µM (K562): 71% | growth at 1 µM (HCT-116 [9]): 87% | growth at 1 µM (KM12 [10]): 88% | growth at 1 µM (SNB-19 [11]): 84% | growth at 1 µM (SK-OV-3 [12]): 97% | growth at 1 µM (BT-549): 80% | growth at 10 µM (COLO 205 [13]): -79% | growth at 10 µM (LOX IMVI): -66% | growth at 10 µM (MDA-MB-435): -15% | growth at 10 µM (SN12C): 14% | growth at 10 µM (UO-31): 11% | growth at 10 µM (DU-145): 15% | growth at 10 µM (MCF7 [14]): -6% | growth at 10 µM (T47D): 28% | growth at 10 µM (MDA-MB-468 [15]): -65% | growth at 100 µM (RPMI-8226): -40% | growth at 100 µM (SR): -5% | growth at 100 µM (NCI-H460): -76% | growth at 100 µM (KM12 [16]): -98% | growth at 100 µM (SNB-19 [17]): -91% | growth at 100 µM (Malme-3M [18]): -75% | growth at 100 µM (NCI/ADR-RES [21]): 2% | growth at 100 µM (RXF 393 [19]): -95%
